Like-named read-outs stand apart in the source and are kept apart here.
Assays:
HepG2 cells = experiment: Resazurin reduction assay (cytotoxicity) in HepG2 cells; conditions: for EC50: read-out: EC50 (cell viability)
HepG2-CYP1A2 cells = conditions: ES 24 h + 72 h recovery; not statistically significant; concentration not given
Method: Following the recovery time, the cells were detached, harvested by centrifugation (300 g, 5 min), and washed with PBS. […] The fluorescent dye was then activated by photolysis (60 W lightbulb, 30 cm spacing) for 20 min before addition of 9 mL PBS to remove unbound dye. […] 1.5 × 10^4 cells were analysed using the BD FACSDiva software (BD Biosciences, Heidelberg, Germany). A schematic overview of the gating strategy is provided in the supporting information, Fig. 3.

parental HepG2 cells = tested on: parental HepG2 cells; parameters: method as in Yang et al. 2020; conditions: ref Yang et al. 2020; cited from earlier work

For `C=CC(O)c1ccc(OC)cc1` (centres unmarked) [1′OH-ES, 1′-hydroxyestragole], the cell viability (HepG2 cells; 50 µM 1′OH-ES, 24 h treatment + 72 h recovery) was “above 70%”, the EC50 (HepG2 cells; 24 h) was 43 µM and the EC50 (HepG2 cells; 72 h) was 27 µM.

In the case of `C=CCc1ccc(OC)cc1` [ES, estragole], the “MN formation, increase vs. solvent control (flow cytometry)” value (HepG2-CYP1A2 cells) is given as 1.6 fold and the DNA adducts (parental HepG2 cells) is given as “failed to cause DNA adducts”.

Reference: paper PMC12408683 (Archives of Toxicology, 2025)
